Results taken from patent publication US9695240B2, “Anthracycline derivative conjugates, process for their preparation and their use as antitumor compounds” (Genentech, Inc., priority 2008, dated 2017).
“Also recorded” adds a separate entry of the source.

Legend:
[1] = test system: Burkitt's lymphoma Bjab-luc xenograft tumors; assay: in vivo Bjab-luc xenograft tumor efficacy study; parameters: species or system CB17 SCID mice
Description: The therapeutic effect of the antibody-drug conjugate (ADC) compounds and the improvement of their therapeutic efficacy in comparison with the parent drug, were assessed in animal models of human transplanted tumors. Mice bearing xenografts of human tumors were treated with suitable doses of antibody-drug conjugates, of PNU-159682 free drug, and naked antibody, at certain doses, and the tumor growth was recorded and compared in the different treatment groups. FIGS. 30-32 show the efficacy of the antibody-drug conjugates of Formula Ic by xenograft tumor inhibition in mice.
The efficacy of the antibody-drug conjugates of the invention may be measured in vivo by implanting allografts or xenografts of cancer cells or primary tumors in rodents and treating the tumors with ADC according to the procedures of Example 12. Variable results are to be expected depending on the cell line, the specificity of antibody binding of the ADC to receptors present on the cancer cells, dosing regimen, and other factors. For example, the in vivo efficacy of anti-HER2 ADC may be measured by a high expressing HER2 transgenic explant mouse model. […] Subjects are treated once with ADC and monitored over 3-6 weeks to measure the time to tumor doubling, log cell kill, and tumor shrinkage. Follow up dose-response and multi-dose experiments may be further conducted.
The Bjab-luc (EBV-negative Burkitt's lymphoma, luciferase expressing Bjab cells) tumors express CD22 receptor protein (Polson et al (2009) Cancer Res. 69(6):2358-2364; US 2008/0050310; US 2005/0276812). CD22 is expressed only in the B-cell compartment and on the surface of most NHL cells (D'Arena et al (2000) Am J Hematol. 64:275-81; Olejniczak et al (2006) Immunol Invest. 35:93-114). Efficacy in inhibiting the Bjab-luc xenograft tumor in mice as a model system may predict the clinical response in treating patients with hematopoietic malignancies such as non-Hodgkins lymphoma.
Efficacy studies were performed using SCID mice (Charles River Laboratories). […] When tumor volumes reached 150-200 mm^3 (typically Day 14 to Day 21 after inoculation), the mice were segregated into sample groups of 9-10 mice per group and the tumor volume was determined in each mouse. […] ADC doses were either measured as the mass of the conjugated cytotoxic small molecule drug per surface area of the mouse, or as a constant mass of ADC per mass of the mouse (e.g., 5 mg of ADC/kg mouse). […] Tumor volume was measured using calipers according to the formula: V (mm^3)=0.5A×B^2, where A and B are the long and short diameters, respectively. […] Data collected from each experimental group were expressed as mean±SE.

BT-474 cells = assay: CellTiter-Glo in vitro cell proliferation assay, BT-474; assay type: cell-based
Description: (§1) Cell-based in vitro assays may be used to measure viability, i.e. proliferation (IC50), cytotoxicity (EC50), and induction of apoptosis (caspase activation) of the ADC. The CellTiter-Glo® Luminescent Cell Viability Assay is a commercially available (Promega Corp., Madison, Wis.), homogeneous assay method based on the recombinant expression of Coleoptera luciferase (U.S. Pat. Nos. 5,583,024; 5,674,713; 5,700,670). This cell proliferation assay determines the number of viable cells in culture based on quantitation of the ATP present, an indicator of metabolically active cells (Crouch et al (1993) J. Immunol. Meth. 160:81-88; U.S. Pat. No. 6,602,677). The CellTiter-Glo® Assay is conducted in 96 well format, making it amenable to automated high-throughput screening (HTS) (Cree et al (1995) AntiCancer Drugs 6:398-404). The homogeneous assay procedure involves adding the single reagent (CellTiter-Glo® Reagent) directly to cells cultured in serum-supplemented medium. Cell washing, removal of medium and multiple pipetting steps are not required. The system detects as few as 15 cells/well in a 384-well format in 10 minutes after adding reagent and mixing.
(§2) The in vitro potency of antibody-drug conjugates was measured by a cell proliferation assay (FIGS. 8-29). The CellTiter-Glo® Luminescent Cell Viability Assay is a commercially available (Promega Corp., Madison, Wis.), homogeneous assay method based on the recombinant expression of Coleoptera luciferase (U.S. Pat. Nos. 5,583,024; 5674,713; 5,700,670). This assay determines the number of viable cells in culture based on quantitation of the ATP present, an indicator of metabolically active cells (Crouch et al (1993) J. Immunol. Meth. 160:81-88; U.S. Pat. No. 6,602,677). The CellTiter-Glo® Assay was conducted in 96 well format, making it amenable to automated high-throughput screening (HTS) (Cree et al (1995) AntiCancer Drugs 6:398-404). The homogeneous assay procedure involves adding the single reagent (CellTiter-Glo® Reagent) directly to cells cultured in serum-supplemented medium.
(§3) The homogeneous “add-mix-measure” format results in cell lysis and generation of a luminescent signal proportional to the amount of ATP present. The substrate, Beetle Luciferin, is oxidatively decarboxylated by recombinant firefly luciferase with concomitant conversion of ATP to AMP and generation of photons. Viable cells are reflected in relative luminescence units (RLU). Data can be recorded by luminometer or CCD camera imaging device. The luminescence output is presented as RLU, measured over time. Alternatively, photons from luminescence can be counted in a scintillation counter in the presence of a scintillant. The light units can be represented then as CPS—counts per second.
(§4) Efficacy of ADC were measured by a cell viability assay employing the following protocol, adapted from CellTiter Glo Luminescent Cell Viability Assay, Promega Corp. Technical Bulletin TB288 and Mendoza et al (2002) Cancer Res. 62:5485-5488: • 1. An aliquot of 50 μl of cell culture containing about 1000 or more cells, including: HER2-expressing and CD22-expressing cells, in medium was deposited in each well of a 96-well, opaque-walled, clear bottom plate. • 2. ADC (50 μl) was added to triplicate experimental wells to final concentration of 10 μg/mL, with “no ADC” control wells receiving medium alone, and incubated for 3 or more days. • 3. The plates were equilibrated to room temperature for approximately 30 minutes. • 4. CellTiter-Glo Reagent (100 μl) was added. • 5. The contents were mixed for 2 minutes on an orbital shaker to induce cell lysis. • 6. The plate was incubated at room temperature for 10 minutes to stabilize the luminescence signal. • 7. Luminescence was recorded and reported in graphs as RLU=relative luminescence units.

tumor models = settings: cited from earlier work
SK-BR-3 cells = assay: CellTiter-Glo in vitro cell proliferation assay, SK-BR-3; assay type: cell-based
Description: as §1, §2, §3, §4

MCF7 cells = assay: CellTiter-Glo in vitro cell proliferation assay, MCF7; assay type: cell-based, human
Description: as §1, §2, §3, §4

[2] = test system: doxorubicin-resistant (DoxRes) HER2 cells; assay: CellTiter-Glo in vitro cell proliferation assay, doxorubicin-resistant HER2; assay type: cell-based
Description: as §1, §2, §3, §4

[3] = 8.77 ug/kg single iv dose day 0, 48 day study

## COc1cccc2c1C(=O)c1c(O)c3c(c(O)c1C2=O)C[C@@](O)(C(=O)CO)C[C@@H]3O[C@H]1C[C@H]2[C@H](O[C@@H]3[C@@H](OC)OCCN32)[C@H](C)O1 [PNU-159682, 3′-deamino-3″,4′-anhydro-[2″(S)-methoxy-3″(R)-oxy-4″-morpholinyl]doxorubicin, reference compound]
[1]; [3]
  CR-complete tumor regression: 0
  PR-partial tumor regression: 0
  TI-tumor incidence: 9/9
[1]; single dosing on day 0, doses of FIG. 30
  tumor growth inhibition in Bjab-luc xenograft, in words: no effect on tumor growth
BT-474 cells; brief (1 hr) exposure
  BT-474 in vitro cell viability at 3 days, in words: effectively inhibited growth
BT-474 cells; continuous exposure, 3 days
  BT-474 in vitro cell viability at 3 days, anti-proliferative activity in words: most potently inhibited; also recorded: caused cytotoxicity at all doses tested
Tumor models
  antitumor activity in in vivo tumor models, in words: effective in vivo tumor models
SK-BR-3 cells; brief (1 hr) exposure
  SK-BR-3 in vitro cell viability at 3 days, in words: effectively inhibited growth
SK-BR-3 cells; continuous exposure, 3 days
  SK-BR-3 in vitro cell viability at 3 days, anti-proliferative activity in words: most potently inhibited; also recorded: caused cytotoxicity at all doses tested
MCF7 cells; brief (1 hr) exposure
  MCF7 in vitro cell viability at 3 days, in words: effectively inhibited growth
MCF7 cells; continuous exposure, 3 days
  MCF7 in vitro cell viability at 3 days, anti-proliferative activity in words: most potently inhibited; also recorded: caused cytotoxicity at all concentrations tested
[2]; brief (1 hr) exposure
  DoxRes HER2 in vitro cell viability at 3 days, in words: effectively inhibited growth
[2]; continuous exposure, 3 days
  DoxRes HER2 in vitro cell viability at 3 days, anti-proliferative activity in words: most potently inhibited; also recorded: inhibited growth at all concentrations tested
